target: T1, human EHMT2 913-1193 (Homo sapiens, UniProt Q96KQ7); assay: biochemical; details: not given
T1 construct: recombinant purified human EHMT2 913-1193, Viva; purchased Viva
T1 sequence (Q96KQ7 913-1193): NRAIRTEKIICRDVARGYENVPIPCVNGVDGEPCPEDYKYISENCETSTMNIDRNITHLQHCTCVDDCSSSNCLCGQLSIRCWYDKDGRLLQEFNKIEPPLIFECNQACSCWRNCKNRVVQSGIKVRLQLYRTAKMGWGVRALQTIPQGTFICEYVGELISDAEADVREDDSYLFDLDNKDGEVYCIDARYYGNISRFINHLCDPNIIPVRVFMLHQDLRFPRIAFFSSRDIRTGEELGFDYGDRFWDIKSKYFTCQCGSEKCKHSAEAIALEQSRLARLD
Description: Biotinylated histone peptides were synthesized by Biopeptide and HPLC-purified to >95% purity. Streptavidin Flashplates and seals were purchased from PerkinElmer and 384 Well V-bottom Polypropylene Plates were from Greiner. ^3H-labeled S-adenosylmethionine (^3H-SAM) was obtained from American Radiolabeled Chemicals with a specific activity of 80 Ci/mmol. Unlabeled SAM and S-adenosylhomocysteine (SAH) were obtained from American Radiolabeled Chemicals and Sigma-Aldrich respectively. […] 384-well Flashplates and 96-well filter binding plates were read on a TopCount microplate reader (PerkinElmer). Compound serial dilutions were performed on a Freedom EVO (Tecan) and spotted into assay plates using a Thermo Scientific Matrix PlateMate (Thermo Scientific). Reagent cocktails were added by Multidrop Combi (Thermo Scientific).
General Procedure for EHMT2 Enzyme Assay on Histone Peptide Substrate. 10-point curves of test compounds were made on a Freedom EVO (Tecan) using serial 3-fold dilutions in DMSO, beginning at 2.5 mM (final top concentration of compound was 50 μM and the DMSO was 2%). A 1 μL aliquot of the inhibitor dilution series was spotted in a polypropylene 384-well V-bottom plate (Greiner) using a Thermo Scientific Matrix PlateMate (Thermo Scientific). […] Reactions were incubated for 60 minutes at room temperature and quenched with 10 μL per well of 400 μM unlabeled SAM, then transferred to a 384-well streptavidin Flashplate (PerkinElmer) and washed in a Biotek ELx-405 well washer with 0.1% Tween after 60 minutes. 384-well Flashplates were read on a TopCount microplate reader (PerkinElmer).

Row | SMILES | IC50 [µM]
1 | COc1cc2c(cc1OCCCN1CCCC1)N=C(N)C21CCCC1 [Compound 56] | < 0.1

same assay, conditions: recombinant human EHMT2 913-1193, histone H3 1-15 peptide, 3H-SAM, balanced conditions; read-out: EHMT2 PEP (IC50 μM)

Row | SMILES | IC50 [µM]
2 | COc1cc2c(cc1OCCCN1CCC1)N=C(N)C21CCC1 [Compound 43] | < 0.1
3 | COc1cc2c(cc1OCCCN(C)C)N=C(N)C2(C)C [Compound 46] | 0.1 to 1
4 | COc1cc2c(cc1OCCCN)N=C(N)C2(C)C [Compound 47] | 1 to 10
5 | CNCCCOc1cc2c(cc1OC)C(C)(C)C(N)=N2 [Compound 48] | 0.1 to 1
6 | COc1cc2c(cc1OCCCN1CC[C@@H](O)C1)N=C(N)C21CCC1 [Compound 49] | < 0.1
7 | COc1cc2c(cc1OCCCN1CC[C@H](O)C1)N=C(N)C21CCC1 [Compound 50] | < 0.1
8 | COc1cc2nc[nH]c2cc1OCCCN1CCCC1 [Compound 51] | 1 to 10
9 | COc1cc2c(cc1OCCCN1CCCCC1)N=C(N)C21CCC1 [Compound 52] | < 0.1
10 | COc1cc2c(cc1OCCCN(C)C)N=C(N)C21CCC1 [Compound 53] | < 0.1
11 | COc1cc2c(cc1OCCCN1CCOCC1)N=C(N)C21CCC1 [Compound 54] | 0.1 to 1
12 | COc1cc2c(cc1OCCCN1CCCC1)N=C(N)C21CCCCC1 [Compound 55] | < 0.1
13 | CNCCCOc1cc2c(cc1OC)C1(CCC1)C(N)=N2 [Compound 57] | 1 to 10
14 | NC1=Nc2cc(OCCCN3CCCC3)c(OCc3ccccc3)cc2C12CCC2 [Compound 58] | 1 to 10
15 | CCOc1cc2c(cc1OCCCN1CCCC1)N=C(N)C21CCC1 [Compound 59] | < 0.1
16 | NC1=Nc2cc(OCCCN3CCCC3)c(OCC3CCOCC3)cc2C12CCC2 [Compound 60] | 1 to 10
17 | NC1=Nc2cc(OCCCN3CCCC3)c(OCC3CCCCC3)cc2C12CCC2 [Compound 61] | > 10
18 | COc1cc2c(cc1OCC(O)CN1CCCC1)N=C(N)C21CCC1 (centres unmarked) [Compound 62] | < 0.1
19 | COc1cc2c(cc1OCC(C)CN1CCCC1)N=C(N)C21CCC1 (centres unmarked) [Compound 65] | 0.1 to 1
20 | COc1cc2c(cc1OCCCN1CCCC1)C1(CCC1)C(N)=N2 [Compound 66] | 1 to 10
21 | COc1cc2c(cc1OCCCN1CCCC1)ncn2C(C)C [Compound 67] | 1 to 10
22 | CC(C)Oc1cc2c(cc1OCCCN1CCCC1)N=C(N)C21CCC1 [Compound 68] | 1 to 10
23 | COc1cc2c(cc1OCCCN)N=C(N)C21CCC1 [Compound 69] | 1 to 10
24 | CNC1=Nc2cc(C#CCN3CC4CC4C3)c(OC)cc2C12CCC2 (centres unmarked) [Compound 87] | < 0.1
25 | CNC1=Nc2cc(C#CC(C)N3CC4CC4C3)c(OC)cc2C12CCC2 (centres unmarked) [Compound 89] | < 0.1
26 | CNC1=Nc2cc(C#C[C@H](C)N3CCCCC3)c(OC)cc2C12CCC2 [Compound 93] | < 0.1
27 | CNC1=Nc2cc(C#C[C@@H](C)N3CCCCC3)c(OC)cc2C12CCC2 [Compound 94] | 0.1 to 1
28 | CNC1=Nc2cc(C#CCN3CCC(O)C3)c(OC)cc2C12CCC2 (centres unmarked) [Compound 95] | 0.1 to 1
29 | NC1=Nc2cc(OCCCN3CCCC3)c(-c3ccccc3)cc2C12CCC2 [Compound 135] | > 10
30 | NC1=Nc2cc(OCCCN3CCCC3)c(-c3ccncc3)cc2C12CCC2 [Compound 136] | > 10
31 | NC1=Nc2cc(OCCCN3CCCC3)c(-c3cccnc3)cc2C12CCC2 [Compound 137] | > 10

target: T2, EHMT1 (Homo sapiens, UniProt Q9H9B1); assay: EHMT1 PEP; assay type: biochemical; details: not given
T2 sequence (Q9H9B1 1-1298): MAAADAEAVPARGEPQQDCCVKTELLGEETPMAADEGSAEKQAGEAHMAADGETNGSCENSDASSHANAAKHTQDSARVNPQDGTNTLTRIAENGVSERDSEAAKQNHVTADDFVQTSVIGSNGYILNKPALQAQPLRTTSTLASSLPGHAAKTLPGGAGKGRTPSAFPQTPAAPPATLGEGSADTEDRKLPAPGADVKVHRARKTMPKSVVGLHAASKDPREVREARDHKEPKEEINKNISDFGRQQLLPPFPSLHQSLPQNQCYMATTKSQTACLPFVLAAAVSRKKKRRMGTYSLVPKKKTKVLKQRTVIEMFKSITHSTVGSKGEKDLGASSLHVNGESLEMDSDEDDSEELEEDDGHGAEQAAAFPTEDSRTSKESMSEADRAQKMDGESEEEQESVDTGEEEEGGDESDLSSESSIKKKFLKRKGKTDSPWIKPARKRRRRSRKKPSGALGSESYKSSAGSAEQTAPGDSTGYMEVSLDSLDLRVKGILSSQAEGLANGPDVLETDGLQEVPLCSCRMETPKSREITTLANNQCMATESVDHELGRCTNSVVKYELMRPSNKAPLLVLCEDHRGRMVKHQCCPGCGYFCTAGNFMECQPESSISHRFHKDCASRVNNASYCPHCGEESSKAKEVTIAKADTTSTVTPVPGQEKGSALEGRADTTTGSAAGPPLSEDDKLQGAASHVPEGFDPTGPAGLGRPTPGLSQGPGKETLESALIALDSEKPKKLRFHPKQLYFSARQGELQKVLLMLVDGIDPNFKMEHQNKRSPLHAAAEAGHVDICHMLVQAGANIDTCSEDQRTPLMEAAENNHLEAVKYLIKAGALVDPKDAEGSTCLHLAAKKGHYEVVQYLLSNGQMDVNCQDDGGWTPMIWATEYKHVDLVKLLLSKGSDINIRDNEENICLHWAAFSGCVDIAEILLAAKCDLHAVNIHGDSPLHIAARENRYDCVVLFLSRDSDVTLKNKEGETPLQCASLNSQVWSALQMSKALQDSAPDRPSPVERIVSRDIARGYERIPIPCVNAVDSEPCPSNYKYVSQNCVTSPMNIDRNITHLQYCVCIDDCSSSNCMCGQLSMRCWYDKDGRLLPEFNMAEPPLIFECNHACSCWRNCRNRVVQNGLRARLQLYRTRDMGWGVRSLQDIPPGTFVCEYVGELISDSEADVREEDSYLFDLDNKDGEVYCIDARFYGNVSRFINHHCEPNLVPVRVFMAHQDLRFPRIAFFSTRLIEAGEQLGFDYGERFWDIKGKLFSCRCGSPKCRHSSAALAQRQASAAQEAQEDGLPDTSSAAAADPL

Row | SMILES | IC50 [µM]
32 | COc1cc2c(cc1OCCCN1CCC1)N=C(N)C21CCC1 [Compound 43] | < 0.1
33 | COc1cc2c(cc1OCCCN(C)C)N=C(N)C2(C)C [Compound 46] | 0.1 to 1
34 | COc1cc2c(cc1OCCCN)N=C(N)C2(C)C [Compound 47] | 1 to 10
35 | CNCCCOc1cc2c(cc1OC)C(C)(C)C(N)=N2 [Compound 48] | 0.1 to 1
36 | COc1cc2c(cc1OCCCN1CC[C@@H](O)C1)N=C(N)C21CCC1 [Compound 49] | < 0.1
37 | COc1cc2c(cc1OCCCN1CC[C@H](O)C1)N=C(N)C21CCC1 [Compound 50] | < 0.1
38 | COc1cc2nc[nH]c2cc1OCCCN1CCCC1 [Compound 51] | 1 to 10
39 | COc1cc2c(cc1OCCCN1CCCCC1)N=C(N)C21CCC1 [Compound 52] | 0.1 to 1
40 | COc1cc2c(cc1OCCCN(C)C)N=C(N)C21CCC1 [Compound 53] | < 0.1
41 | COc1cc2c(cc1OCCCN1CCOCC1)N=C(N)C21CCC1 [Compound 54] | 0.1 to 1
42 | COc1cc2c(cc1OCCCN1CCCC1)N=C(N)C21CCCCC1 [Compound 55] | < 0.1
43 | COc1cc2c(cc1OCCCN1CCCC1)N=C(N)C21CCCC1 [Compound 56] | < 0.1
44 | CNCCCOc1cc2c(cc1OC)C1(CCC1)C(N)=N2 [Compound 57] | 1 to 10
45 | NC1=Nc2cc(OCCCN3CCCC3)c(OCc3ccccc3)cc2C12CCC2 [Compound 58] | 1 to 10
46 | CCOc1cc2c(cc1OCCCN1CCCC1)N=C(N)C21CCC1 [Compound 59] | < 0.1
47 | NC1=Nc2cc(OCCCN3CCCC3)c(OCC3CCOCC3)cc2C12CCC2 [Compound 60] | 1 to 10

Row | SMILES | IC50 [µM]
48 | NC1=Nc2cc(OCCCN3CCCC3)c(OCC3CCCCC3)cc2C12CCC2 [Compound 61] | > 10
49 | COc1cc2c(cc1OCC(O)CN1CCCC1)N=C(N)C21CCC1 (centres unmarked) [Compound 62] | < 0.1
50 | COc1cc2c(cc1OCC(C)CN1CCCC1)N=C(N)C21CCC1 (centres unmarked) [Compound 65] | 0.1 to 1
51 | COc1cc2c(cc1OCCCN1CCCC1)C1(CCC1)C(N)=N2 [Compound 66] | 1 to 10
52 | COc1cc2c(cc1OCCCN1CCCC1)ncn2C(C)C [Compound 67] | > 10
53 | CC(C)Oc1cc2c(cc1OCCCN1CCCC1)N=C(N)C21CCC1 [Compound 68] | 1 to 10
54 | COc1cc2c(cc1OCCCN)N=C(N)C21CCC1 [Compound 69] | 1 to 10
55 | CNC1=Nc2cc(C#CCN3CC4CC4C3)c(OC)cc2C12CCC2 (centres unmarked) [Compound 87] | < 0.1
56 | CNC1=Nc2cc(C#CC(C)N3CC4CC4C3)c(OC)cc2C12CCC2 (centres unmarked) [Compound 89] | < 0.1
57 | CNC1=Nc2cc(C#C[C@H](C)N3CCCCC3)c(OC)cc2C12CCC2 [Compound 93] | < 0.1
58 | CNC1=Nc2cc(C#C[C@@H](C)N3CCCCC3)c(OC)cc2C12CCC2 [Compound 94] | 0.1 to 1
59 | CNC1=Nc2cc(C#CCN3CCC(O)C3)c(OC)cc2C12CCC2 (centres unmarked) [Compound 95] | < 0.1
60 | NC1=Nc2cc(OCCCN3CCCC3)c(-c3ccccc3)cc2C12CCC2 [Compound 135] | 1 to 10
61 | NC1=Nc2cc(OCCCN3CCCC3)c(-c3ccncc3)cc2C12CCC2 [Compound 136] | 1 to 10
62 | NC1=Nc2cc(OCCCN3CCCC3)c(-c3cccnc3)cc2C12CCC2 [Compound 137] | > 10

From patent publication US20220274961A1, “SUBSTITUTED FUSED BI- OR TRI- HETEROCYCLIC COMPOUNDS AS EHMT2 INHIBITORS” (priority 2016, published 2022)
